We go through eight molecules from patent US20160362416A1, “ANTIVIRAL COMPOUNDS” (Gilead Sciences, Inc., priority 2012, published 2016).

Holding throughout (type): cell-based
Assay [1] has as its system stable HCV 1b RLuc replicon cells (genotype 1b Con1 replicon). The assay can be described thus: HCV genotype 1b RLuc replicon reporter assay. To be noted: Hepatitis C virus; stable genotype 1b Con1 RLuc replicon cells, 72 hours. How it is done:
(§1) Evaluation of cell-based anti-HCV activity: Antiviral potency (EC50) was determined using a Renilla luciferase (RLuc)-based HCV replicon reporter assay. To perform the assay for genotype 1 and 2a JFH-1, stable HCV 1a RLuc replicon cells (harboring a dicistronic genotype 1a H77 replicon that encodes a RLuc reporter), stable HCV lb RLuc replicon cells (harboring a dicistronic genotype 1b Conl replicon that encodes a RLuc reporter), or stable HCV 2a JFH-1 Rluc replicon cells (harboring a dicistronic genotype 2a JFH-1 replicon that encodes a RLuc reporter; with L31 present in NS5A) were dispensed into 384-well plates for EC50 assays. To perform the assay for genotype 2a (with M31 present in NS5A) or 2b, NS5A chimeric genotype 2a JFH-1 replicons that encodes a RLuc-Neo reporter and either genotype 2a J6 strain NS5A gene or genotype 2b MD2b-1 strain NS5A gene (both with M31 present) respectively, were either transiently transfected (t) into Huh-Lunet cells or were established as stably replicating replicon cells (s) is provided. Either cells were dispensed into 384-well plates for EC50 assays. To perform the assay for genotype 3 and 4, NS5A chimeric genotype 1b Conl replicons that encodes a Pi-RLuc reporter and either genotype 3a S52 strain NS5A gene or genotype 4a ED43 strain NS5A gene respectively, were transiently transfected (t) into Huh-Lunet cells, which were subsequently dispensed into 384-well plates. Compounds were dissolved in DMSO at a concentration of 10 mM and diluted in DMSO either manually or using an automated pipeting instrument. Serially 3-fold diluted compounds were either manually mixed with cell culture media and added to the seeded cells or directly added to the cells using an automated instrument. DMSO was used as a negative (solvent; no inhibition) control, and the protease inhibitor ITMN-191 was included at a concentration >100×EC50 as a positive control. 72 hours later, cells were lysed and Renilla luciferase activity quantified as recommended by the manufacturer (Promega-Madison, Wis.). Non-linear regression was performed to calculate EC50 values.

The subject of assay [2] is stable HCV 1a RLuc replicon cells (genotype 1a H77 replicon). Put plainly: HCV genotype 1a RLuc replicon reporter assay. To be noted: Hepatitis C virus; stable genotype 1a H77 RLuc replicon cells, 72 hours. How it is done:
as §1

Assay [3] concerns NS5A chimeric genotype 2a JFH-1 replicon with genotype 2a J6 strain NS5A gene (M31). Put plainly: HCV genotype 2a J6 NS5A chimeric replicon assay, transient (t). To be noted: Hepatitis C virus, 72 h, read-out: 2a J6 (t) (nM). Here is the method:
as §1

For assay [4], the system named is NS5A chimeric genotype 2a JFH-1 replicon with genotype 2b MD2b-1 strain NS5A gene (M31). The assay can be described thus: HCV genotype 2b NS5A chimeric replicon assay, stable (s). To be noted: Hepatitis C virus, 72 h, read-out: 2b (s) (nM). How it is done:
as §1

For assay [5], the system named is stable HCV 2a JFH-1 Rluc replicon cells (L31 present in NS5A). The assay can be described thus: HCV genotype 2a JFH-1 RLuc replicon reporter assay. To be noted: Hepatitis C virus, 72 h, read-out: 2a JFH (nM). Here is the method:
as §1

Assay [6] relates to NS5A chimeric genotype 1b Con1 replicon with genotype 3a S52 strain NS5A gene. Put plainly: HCV genotype 3a NS5A chimeric replicon assay. The settings on record: Hepatitis C virus, 72 h, read-out: 3a (nM). Here is the method: as §1
In assay [7] the test system is NS5A chimeric genotype 1b Con1 replicon with genotype 4a ED43 strain NS5A gene. Put plainly: HCV genotype 4a NS5A chimeric replicon assay. To be noted: Hepatitis C virus, 72 h, read-out: 4a (s) (nM). How it is done:
as §1, with “[…],” for “were transiently transfected (t) into Huh-Lunet cells,”

`COC[C@H]1C[C@@H](c2ncc(-c3ccc4c(c3)COc3cc5c(ccc6nc([C@@H]7CC[C@H](C)N7C(=O)[C@@H](NC(=O)OC)C(C)C)[nH]c65)cc3-4)[nH]2)N(C(=O)[C@@H](NC(=O)OC)C2CCOCC2)C1` [Comp 2, reference compound]: the values for the EC50 in assay [1], in assay [2] and in assay [3] were 0.064 nM, 0.055 nM and 0.083 nM, respectively.

Turning to `COC(=O)N[C@H](C(=O)N1CCC[C@H]1c1ncc(-c2ccc3c(c2)COc2cc4c(ccc5nc([C@@H]6CCCN6C(=O)[C@@H](NC(=O)OC)C6CCOCC6)[nH]c54)cc2-3)[nH]1)C1CCOCC1` [Comp 11, reference compound], the EC50 in assay [1] came to 0.416 nM; in assay [2], 0.203 nM; in assay [4] it was 0.203 nM.

Take `COC(=O)N[C@H](C(=O)N1[C@@H](C)CC[C@H]1c1ncc(-c2ccc3c(c2)COc2cc4c(ccc5nc([C@@H]6CC[C@H](C)N6C(=O)[C@@H](NC(=O)OC)C6(C)CCOCC6)[nH]c54)cc2-3)[nH]1)C(C)C` [Example AD, Methyl [(2S)-1-{(2S,5S)-2-[5-(2-{(2S,5S)-1-[(2S)-2-[(methoxycarbonyl)amino]-2-(4-methyltetrahydro-2H-pyran-4-yl)acetyl]-5-methylpyrrolidin-2-yl}-1,11-dihydroisochromeno[4′,3′:6,7]naphtho[1,2-d]imidazol-9-yl)-1H-imidazol-2-yl]-5-methylpyrrolidin-1-yl}-3-methyl-1-oxobutan-2-yl]carbamate]: the EC50 in assay [1] is 0.031 nM; in assay [2], 0.021 nM; in assay [5] it was 0.027 nM; in assay [3] it was 1.02 nM; in assay [4] it was 0.351 nM; in assay [6], 0.074 nM. Moreover, the EC50 in assay [7] amounted to 0.018 nM.

Consider `CC[C@H]1CC[C@@H](c2nc3ccc4cc5c(cc4c3[nH]2)OCc2cc(-c3cnc([C@@H]4CC[C@H](C)N4C(=O)[C@@H](NC(=O)OC)C(C)C)[nH]3)ccc2-5)N1C(=O)[C@@H](NC(=O)OC)[C@@H]1CCCOC1` [Example AH, Methyl{(1S)-2-[(2S,5S)-2-ethyl-5-(9-{2-[(2S,5S)-1-{(2S)-2-[(methoxycarbonyl)amino]-3-methylbutanoyl}-5-methylpyrrolidin-2-yl]-1H-imidazol-5-yl}-1,11-dihydroisochromeno[4′,3′:6,7]naphtho[1,2-d]imidazol-2-yl)pyrrolidin-1-yl]-2-oxo-1-[(3S)-tetrahydro-2H-pyran-3-yl]ethyl}carbamate], for which the EC50 in assay [1] was found to be 0.021 nM; in assay [2] it was 0.026 nM; in assay [5] it was 0.031 nM; in assay [3], 0.172 nM; in assay [4], 0.104 nM; in assay [6], 0.154 nM. Moreover, in assay [7], the EC50 was 0.017 nM.

In the case of `COC(=O)N[C@H](C(=O)N1[C@@H](C)CC[C@H]1c1nc2ccc3cc4c(cc3c2[nH]1)OCc1cc(-c2cnc([C@@H]3CC[C@H](C)N3C(=O)[C@@H](NC(=O)OC)C3(C)CCOCC3)[nH]2)ccc1-4)C(C)C` [Example AL, Methyl [(2S)-1-{(2S,5S)-2-[9-(2-{(2S,5S)-1-[(2S)-2-[(methoxycarbonyl)amino]-2-(4-methyltetrahydro-2H-pyran-4-yl)acetyl]-5-methylpyrrolidin-2-yl}-1H-imidazol-5-yl)-1,11-dihydroisochromeno[4′,3′:6,7]naphtho[1,2-d]imidazol-2-yl]-5-methylpyrrolidin-1-yl}-3-methyl-1-oxobutan-2-yl]carbamate], the EC50 in assay [1] turned out to be 0.03 nM; in assay [2], 0.02 nM; in assay [5], 0.026 nM; in assay [3], 0.776 nM; in assay [4], 0.713 nM; in assay [6], 0.086 nM. Besides, the EC50 in assay [7] was 0.028 nM.

Take `COC(=O)N[C@H](C(=O)N1[C@@H](C)CC[C@H]1c1ncc(-c2ccc3c(c2)COc2cc4c(ccc5nc([C@@H]6CC[C@H](C)N6C(=O)[C@H](NC(=O)OC)[C@H]6C[C@@H](C)O[C@@H](C)C6)[nH]c54)cc2-3)[nH]1)C(C)C` [Example AN, Methyl {(2S)-1-[(2S,5S)-2-(5-{2-[(2S,5S)-1-{(2R)-2-[(2R,6S)-2,6-dimethyltetrahydro-2H-pyran-4-yl]-2-[(methoxycarbonyl)amino]acetyl}-5-methylpyrrolidin-2-yl]-1,11-dihydroisochromeno[4′,3′:6,7]naphtho[1,2-d]imidazol-9-yl}-1H-imidazol-2-yl)-5-methylpyrrolidin-1-yl]-3-methyl-1-oxobutan-2-yl}carbamate]: the EC50 in assay [1] came to 0.049 nM; in assay [2], 4.44 nM; in assay [5], 0.852 nM; in assay [3], 4.44 nM; in assay [4], 4.44 nM; in assay [6] it was 4.44 nM. Also, the EC50 in assay [7] was found to be 0.935 nM.

For the molecule `COC(=O)N[C@H](C(=O)N1[C@@H](c2ncc(-c3ccc4c(c3)COc3cc5c(ccc6nc([C@H]7C[C@@H](C)[C@@H](C)N7C(=O)[C@@H](NC(=O)OC)C7C[C@@H](C)O[C@H](C)C7)[nH]c65)cc3-4)[nH]2)C[C@@H](C)[C@H]1C)C1C[C@@H](C)O[C@H](C)C1` (stereo partly drawn) [Example BC, Methyl {(1S)-1-[(2R,6R)-2,6-dimethyltetrahydro-2H-pyran-4-yl]-2-[(2R,3R,5R)-5-(5-{2-[(2R,4R,5R)-1-{(2S)-2-[(2R,6R)-2,6-dimethyltetrahydro-2H-pyran-4-yl]-2-[(methoxycarbonyl)amino]acetyl}-4,5-dimethylpyrrolidin-2-yl]-1,11-dihydroisochromeno[4′,3′:6,7]naphtho[1,2-d]imidazol-9-yl}-1H-imidazol-2-yl)-2,3-dimethylpyrrolidin-1-yl]-2-oxoethyl}carbamate], the EC50 in assay [1] was 2.47 nM; in assay [2], 10.1 nM; in assay [5], 8.04 nM; in assay [4], 23.1 nM; in assay [6] it was 23.3 nM; in assay [7], 6.24 nM.

On to `CCOC(=O)N[C@H](C(=O)N1[C@@H](C)CC[C@H]1c1ncc(-c2ccc3c(c2)COc2cc4c(ccc5nc([C@@H]6CC[C@H](C)N6C(=O)[C@@H](NC(=O)OCC)C6C[C@@H](C)O[C@H](C)C6)[nH]c54)cc2-3)[nH]1)C1C[C@@H](C)O[C@H](C)C1` (stereo partly drawn) [Example BM, Ethyl {(1S)-1-[(2R,6R)-2,6-dimethyltetrahydro-2H-pyran-4-yl]-2-[(2S,5S)-2-(5-{2-[(2S,5S)-1-{(2S)-2-[(2R,6R)-2,6-dimethyltetrahydro-2H-pyran-4-yl]-2-[(ethoxycarbonyl)amino]acetyl}-5-methylpyrrolidin-2-yl]-1,11-dihydroisochromeno[4′,3′:6,7]naphtho[1,2-d]imidazol-9-yl}-1H-imidazol-2-yl)-5-methylpyrrolidin-1-yl]-2-oxoethyl}carbamate], for which the EC50 in assay [1] worked out at 0.053 nM; in assay [2] it was 0.034 nM; in assay [5] it was 0.023 nM; in assay [6] it was 0.143 nM; in assay [7], 0.039 nM.
